According to US20250248979A1, “NOVEL GPX4 INHIBITORS AND USES THEREOF” (THE TRUSTEES OF COLUMBIA UNIVERSITY IN THE CITY OF NEW YORK, priority 2022, published 2025):
Converted amounts (≈) assume the structure as drawn. “Also recorded” adds a separate entry of the source. Where two headings read alike, the source gives them in different places. Blank lines part the entries; values can stand above or below the molecule they belong to.

Legend:
in vitro [1] = settings: mouse, plasma
[2] = tested on: lipid peroxidation in HT-1080 cells; test: C11-BODIPY lipid peroxidation flow cytometry assay; assay type: cell-based, human
GPX4^U46C = biological target: T1, GPX4^U46C (Homo sapiens, UniProt P36969, U73C); test: Microscale thermophoresis (MST) binding; settings: for EC50: half maximal effective concentration, covalent mechanism
T1 construct: made in house; host or cells: E. coli BL21-Gold (DE3)
T1 sequence (P36969 1-170 isoform P36969-2 U46C): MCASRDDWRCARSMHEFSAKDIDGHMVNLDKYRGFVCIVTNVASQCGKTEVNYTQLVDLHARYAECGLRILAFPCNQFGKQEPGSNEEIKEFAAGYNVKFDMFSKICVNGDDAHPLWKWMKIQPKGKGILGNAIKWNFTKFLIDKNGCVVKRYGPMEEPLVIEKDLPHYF
Method: The bacterial expression vector pET-15b-His-tagged-c-GPX4^U46C was prepared as previously described (Yang et al. 2016). The C-terminal His-tagged GPX4U46C protein was expressed in E. coli and purified according to a protocol modified from Scheerer et al. 2007. First, pET-15b-His-tagged-c-GPX4^U46C was transformed into XL10-Gold (Agilent #200314) E. coli ultracompetent cells for plasmid DNA production and isolated using QIAprep Spin Miniprep Kit (Qiagen). For protein expression, pET-15b-His-tagged-c-GPX4^U46C was then transformed into BL21-Gold (DE3) E. coli competent cells (Agilent #230132) and plated on LB agar with 100 μg/mL ampicillin. A starter culture was inoculated in 7 mL of LB medium with 100 μg/mL ampicillin using a single colony and allowed to grow in a 37° C. shaker (225 rpm) for 16 hours. 3 mL of the starter culture was added to 1 L of LB medium with 100 μg/mL ampicillin, which was then incubated in a 37° C. shaker (225 rpm) to an OD600 of 0.9. At that point, the incubation temperature was reduced to 15° C. and the culture was allowed to equilibrate for 1 hour. Expression of the recombinant enzyme was induced by addition of isopropyl β-D-1-thiogalactopyranoside (IPTG, 1 mM final concentration) overnight for 12-15 hours shaking at 225 rpm and 15° C. The next morning, cells were harvested by centrifugation at 4000 rpm and 4° C. for 20 minutes. The cell pellet was then frozen at −80° C. for at least 1 hour or until lysis. To lyse the cells, the cell pellet was resuspended with 25 mL of chilled lysis buffer (100 mM Tris pH 8.0, 300 mM NaCl, 20 mM imidazole, 3 mM TCEP, and 2.5 mini tablets of complete Protease Inhibitor Cocktail (Roche-Sigma #11836170001)) then lysed using an Emulsiflex C3 high-pressure homogenizer. To remove cell debris, the lysate was subjected to centrifugation at 10000 rpm and 4° C. for 20 minutes. The supernatant was centrifuged once more at the same conditions, then the clarified lysate was applied onto a 5-mL HisTrap HP column (Cytiva #17-5248-01), washed with 90% Buffer A (100 mM Tris pH 8.0, 300 mM NaCl, 5% glycerol, 3 mM TCEP) 10% Buffer B (Buffer A with 500 mM imidazole), then eluted with a continuous gradient (10-100% Buffer B). The protein was concentrated using Amicon Ultra-15 centrifugal filter units with a 10 kDa molecule weight cutoff (EMD Millipore #UFC901024) then further purified by FPLC on a size exclusion HiLoad Superdex 200 column (Cytiva) in crystallization buffer (20 mM Tris pH 8.0, 300 mM NaCl, 3 mM TCEP). The fractions containing 90-95% pure GPX4 protein, as evaluated by SDS-PAGE, were pooled and concentrated using the same Amicon centrifugal filter units as above to 5 mg/mL. Concentration was determined by Nanodrop. Protein was aliquoted into Eppendorf tubes, flash frozen using liquid nitrogen, and stored at −80° C. until use.
MST experiments were conducted using a Monolith NT.115 (Nanotemper Technologies) according to manufacturer instructions. To label the protein, 90 μL of 200 nM GPX4^U46C was combined with 90 μL of 100 nM RED-tris-NTA dye diluted in PBS buffer with 0.05% Tween 20 (PBST buffer). The mixture was incubated for 30 minutes at room temperature, followed by centrifugation for 10 minutes at 4° C. and 15,000×g. To assess binding of the compounds, a 16-point 2-fold dilution series in PBST buffer was prepared and mixed in a 1:1 ratio with the labeled protein solution for a final volume of 20 μL. The reaction mixture was loaded into standard treated capillary tubes and analyzed with the Monolith NT.115 at 40% LED power and 40% MST power with a laser-on time of 5 seconds. The data were analyzed in MO.Affinity Analysis v2.3 software.

in vitro [3] = settings: human, plasma
[4] = Kinetic aqueous solubility
in vitro [5] = assay type: in vitro ADME, mouse; settings: mouse, microsomes
Method: (§1) […]. The incubation timepoints measured were 0, 5, 10, 15, 30, and 45 minutes. All samples were prepared in duplicate and analyzed by LC-MS/MS.

in vitro [6] = assay type: in vitro ADME, human; settings: human, microsomes
Method: as §1

[7] = tested on: DTP cells derived from PC9; test: Drug-tolerant persister cell model, DTP cells; settings: for % Viability Persister: 48 hours; for viability at 10 µM: Homo sapiens
[8] = not given; remark: listed apart in the source
SU-DHL-6 = test: Cytotoxicity in DLBCL cells, SU-DHL-6; assay type: cell-based, human; settings: for IC50: SU-DHL-6
U-2932 = test: Cytotoxicity in DLBCL cells, U-2932; assay type: cell-based, human; settings: for IC50: U-2932
SU-DHL-7 = test: Cytotoxicity in DLBCL cells, SU-DHL-7; assay type: cell-based, human; settings: for IC50: SU-DHL-7
[9] = HT-1080 cells, with and without fer-1
[10] = Fer-1 1.0 μM, read-out: IC50 (μM) with Fer-1

half-life (in vitro [1]): < 2 min
Kd (GPX4^U46C; MST): 263 µM
EC50 (GPX4^U46C): 263 µM
half-life (in vitro [3]): 10.8 min
Compound: COc1cccc2[nH]c(C(=O)n3ccnc3)cc12 [LOC1886, reference compound]
lipid peroxidation (C11-BODIPY), result in words [2, 9]: induces lipid peroxidation in cells

EC50 (GPX4^U46C): 2.4 µM
Compound: CC(C)(COC(=O)CCl)NC(=O)c1cc2ccccc2[nH]1 [QW-147]

EC50 (GPX4^U46C): 39.7 µM
Compound: CC(C)(COC(=O)CCl)NC(=O)c1cc2cc([N+](=O)[O-])ccc2[nH]1 [QW-148]

Solubility ([4]; aqueous solubility, Table 9): 88 µM (≈ 29.8 µg/mL)
Microsome Stability t1/2 (min) mouse (in vitro [5]): 0.9 min
EC50 (GPX4^U46C): 0.678 µM
Microsome Stability t1/2 (min) human (in vitro [6]): 1.5 min
Compound: COc1ccc2cc(C(=O)NC(C)(C)COC(=O)CCl)[nH]c2c1 [QW-152]

Solubility ([4]; aqueous solubility, Table 9): 23 µM (≈ 8.92 µg/mL)
Microsome Stability t1/2 (min) mouse (in vitro [5]): >1000 min
EC50 (GPX4^U46C): 0.218 µM
Microsome Stability t1/2 (min) human (in vitro [6]): >1000 min
Compound: CC(C)(COC(=O)CCl)NC(=O)c1cc2ccc(Br)cc2[nH]1 [QW-156]
lipid peroxidation (C11-BODIPY), result in words [2, 9]: induced fer-1 rescuable increases in lipid peroxidation
selectivity for DTPs vs PC9 parental cells, result in words [7]: no selectivity for DTP cells over PC9 cells at most concentrations tested
% Viability Persister ([7]; dose 1.0 μM): 122.00%
% Viability Persister ([7]; dose 10.0 μM): 73.25%
% Viability Persister ([7]; dose 25.0 μM): 24.50%
% Viability Persister ([7]; dose 50.0 μM): 2.50%

Compound: Cn1nc(C(=O)NC(C)(C)COC(=O)CCl)c2ccc(Br)cc21 [QW-314]
solubility at 1 h ([4]; phosphate buffered saline, pH 7.4, aqueous buffer, kinetic from dmso stock): 61 µM (≈ 24.6 µg/mL)
half-life at 1 μM (in vitro [5]; pH 7.4): 5.3 min
half-life (in vitro [1]): 40.7 min
lipid peroxidation (C11-BODIPY), result in words [2]: increased lipid peroxidation that is rescuable by ferrostatin-1
Kd (GPX4^U46C; MST): 5.8 µM
selectivity for DTPs vs PC9 parental cells, result in words [7]: selective lethality in DTPs vs PC9 parental cells; also recorded: preferential induction of significantly more cell death in the DTP cells compared to the parental cells
viability at 10 µM ([7]; 48 h, read-out: % Viability Persister): 22%
viability at 10 µM ([7]; read-out: % Viability Persister + 2 μM Fer-1): 73%
half-life at 1 μM (in vitro [6]; pH 7.4): 6 min
half-life (in vitro [3]): 2.3 min

aqueous solubility [4]: up to 1000 μM
Solubility ([4]; 1% DMSO, Phosphate Buffered Saline pH 7.4, 1 hour, ambient, UV/Vis absorbance): 22 µM (≈ 10.2 µg/mL)
Solubility ([4]; aqueous solubility, Table 9): >1000 µM
Microsome Stability t1/2 (min) mouse (in vitro [5]): 1.2 min
Plasma Stability t1/2 (min) human: 7.5 min
Plasma Stability t1/2 (min) mouse [8]: 24.0 min
Kd (GPX4^U46C; MST): 0.485 µM
times more potent than RSL3 (binding affinity) (GPX4^U46C; MST, relative to RSL3): 15 times
Microsome Stability t1/2 (min) human (in vitro [6]): 1.6 min
Compound: COc1ccc(-c2ccc3c(C(=O)NC(C)(C)COC(=O)CCl)nn(C)c3c2)cc1Cl [QW-446]
lipid peroxidation (C11-BODIPY), result in words [2, 9]: induced fer-1 rescuable increases in lipid peroxidation
ferroptosis induction / potency in SU-DHL-6 cells, result in words (SU-DHL-6): a potency that is similar to RSL3
selectivity for DTPs vs PC9 parental cells, result in words [7]: show DTP selectivity relative to PC9 parental cells; also recorded: selective and similar or stronger cytotoxicity to DTP cells
% Viability Persister ([7]; dose 0.5 μM): 127.75%
% Viability Persister + 2 μM Fer-1 ([7]; dose 0.5 μM): 110.75%
% Viability Persister ([7]; dose 10.0 μM): 26.50%
% Viability Persister + 2 μM Fer-1 ([7]; dose 10.0 μM): 107.50%
% Viability Persister ([7]; dose 20.0 μM): 4.25%
% Viability Persister + 2 μM Fer-1 ([7]; dose 20.0 μM): 27.00%

Compound: CC(C)(COC(=O)CCl)NC(=O)c1nn(Cc2cc(Cl)cc(Cl)c2)c2cc(-c3ccc(N4CCOCC4)c(Cl)c3)ccc12 [QW-852]
Selectivity^a (fold) (U-2932): 6 fold
IC50 (U-2932; 24 h, read-out: IC50): 1.37 µM
IC50 (U-2932; [10]): 7.9 µM
lipid peroxidation (C11-BODIPY), result in words [2, 9]: increase in lipid-ROS which can be attenuated by ferrostatin-1
Selectivity^a (fold) (SU-DHL-6): 269 fold
IC50 (SU-DHL-6; 24 h, read-out: IC50): 0.019 µM
IC50 (SU-DHL-6; [10]): 5110 µM
Selectivity^a (fold) (SU-DHL-7): >1000 fold
IC50 (SU-DHL-7; 24 h, read-out: IC50): 0.031 µM
IC50 (SU-DHL-7; [10]): > 1000 µM
selectivity for DTPs vs PC9 parental cells, result in words [7]: greater potency and selectivity to DTP cells
% Viability Persister ([7]; dose 1.0 μM): 48.00%
% Viability Persister + 2 μM Fer-1 ([7]; dose 1.0 μM): 93.75%
% Viability Persister ([7]; dose 10.0 μM): 3.25%

Compound: COC(=O)c1ccc([C@@H]2c3[nH]c4ccccc4c3C[C@@H](C(=O)OC)N2C(=O)CCl)cc1 [RSL3, reference compound]
Solubility ([4]; aqueous solubility, Table 9): 26 µM (≈ 11.5 µg/mL)
Selectivity^a (fold) (U-2932): >1000 fold
IC50 (U-2932; 24 h, read-out: IC50): 0.16 µM
IC50 (U-2932; [10]): 316 µM
Microsome Stability t1/2 (min) mouse (in vitro [5]): 2.4 min
Plasma Stability t1/2 (min) human: >1000 min
Plasma Stability t1/2 (min) mouse [8]: 5.2 min
Selectivity^a (fold) (SU-DHL-6): 71 fold
IC50 (SU-DHL-6; 24 h, read-out: IC50): 0.019 µM
IC50 (SU-DHL-6; [10]): 1.35 µM
Selectivity^a (fold) (SU-DHL-7): 6 fold
IC50 (SU-DHL-7; 24 h, read-out: IC50): 0.17 µM
IC50 (SU-DHL-7; [10]): 1 µM
% Viability Persister ([7]; dose 1.0 μM): 6.00%
Microsome Stability t1/2 (min) human (in vitro [6]): 14 min
